Paper PMC8812798 (Emerging Microbes & Infections, 2021)
Where two headings read alike, the source gives them in different places. Where a SMILES comes first, the peptide text is derived from it. The star is where a group is joined. Succinyl(4-O-cholesteryl) = CC(C)CCC[C@@H](C)[C@H]1CC[C@H]2[C@@H]3CC=C4C[C@@H](OC(=O)CCC(=O)*)CC[C@]4(C)[C@H]3CC[C@]12C

Columns and labels:
primary HIV-1 Envs = experiment: DSP-based cell–cell fusion assay, panel of primary HIV-1 Envs
H5N1 pseudovirus = conditions: 48 h
H7N9 pseudovirus = conditions: 48 h
RSV pseudovirus = conditions: 48 h
SIV239 pseudovirus = conditions: 48 h
SIVPBJ pseudovirus = conditions: 48 h
HIV-1NL4-3 Env = assay type: cell-based; conditions: Table 2; HIV-1NL4-3 Env-mediated cell–cell fusion; triplicate, repeated three times; read-out: IC50 ± SD, Env cell fusion
[1] = test system: gp41 HR1-derived peptides (N42, N36, and N38); experiment: Size-exclusion chromatography of EK1 with gp41 HR1-derived peptides; assay type: binding, HIV-1; conditions: molar ratio 1:1, 0.2 mM, 0.05M sodium phosphate pH 7.2, 37°C 30 min; Superdex-75
Protocol: The binding between EK1 peptide and a target mimic peptide derived from the HR1 sequence of gp41 was analysed by size-exclusion chromatography. In brief, EK1 was mixed with N42, N36 or N38 (molar ratio of 1:1) in 0.05M sodium phosphate (pH 7.2) at a final concentration of 0.2 mM, and then incubated at 37°C for 30 min. The mixture was applied to the Superdex-75 10/300 GL (GE Healthcare, Piscataway, NJ, USA) equilibrated with 50 mM sodium phosphate and eluted at 0.8 ml/min, and fractions were monitored at 214 nm.

HIV-2ROD = conditions: read-out: IC50, inhibition of HIV-2ROD infection; Fig 2A; replication-competent virus, TZM-bl cells, 48 h; mean IC50, repeated three times
HIV-2ST = conditions: read-out: IC50, inhibition of HIV-2ST infection; Fig 2B; replication-competent virus, TZM-bl cells, 48 h; mean IC50, repeated three times
SARS-CoV-2 = experiment: Inhibition of SARS-CoV-2 by HIV-1 fusion inhibitors (Table S1); assay type: cell-based; conditions: at a concentration as high as 25 or 50 μM (Table S1)
HIV-1 = experiment: Inhibition of HIV-1 by HIV-1 fusion inhibitors (Table S1); assay type: cell-based; conditions: Table S1, in words only
[2] = HIV-1 Env 246_F3_C10_2, subtype A/C, triplicate, repeated three times, read-out: Cell fusion (IC50±SD)
[3] = HIV-1 Env 398-F1_F6_20, subtype A, triplicate, repeated three times, read-out: Cell fusion (IC50±SD)
[4] = HIV-1 Env BJOX002000.03.2, subtype B/C, triplicate, repeated three times, read-out: Cell fusion (IC50±SD)
[5] = HIV-1 Env CE1176_A3, subtype C, triplicate, repeated three times, read-out: Cell fusion (IC50±SD)
[6] = HIV-1 Env CE703010217_B6, subtype C, triplicate, repeated three times, read-out: Cell fusion (IC50±SD)
[7] = HIV-1 Env CH119.10, subtype B/C, triplicate, repeated three times, read-out: Cell fusion (IC50±SD)
[8] = HIV-1 Env CNE8, subtype A/E, triplicate, repeated three times, read-out: Cell fusion (IC50±SD)
[9] = HIV-1 Env CNE55, subtype A/E, triplicate, repeated three times, read-out: Cell fusion (IC50±SD)
[10] = HIV-1 Env HIV_25710-2.43, subtype C, triplicate, repeated three times, read-out: Cell fusion (IC50±SD)
[11] = HIV-1 Env SF162, subtype B, triplicate, repeated three times, read-out: Cell fusion (IC50±SD)
[12] = HIV-1 Env TRO.11, subtype B, triplicate, repeated three times, read-out: Cell fusion (IC50±SD)
[13] = HIV-1 Env X1632-S2-B10, subtype G, triplicate, repeated three times, read-out: Cell fusion (IC50±SD)
[14] = HIV-1 Env X2278_C2_B6, subtype B, triplicate, repeated three times, read-out: Cell fusion (IC50±SD)
[15] = Mean over 14 primary HIV-1 Envs of Table 1, read-out: Cell fusion, mean IC50 over the panel

Compound | IC50 (primary HIV-1 Envs; [2]) | IC50 (primary HIV-1 Envs; [3]) | IC50 (primary HIV-1 Envs; [4]) | IC50 (primary HIV-1 Envs; [5]) | IC50 (primary HIV-1 Envs; [6]) | IC50 (primary HIV-1 Envs; [7]) | IC50 (primary HIV-1 Envs; [8]) | IC50 (primary HIV-1 Envs; [9]) | IC50 (primary HIV-1 Envs; [10]) | IC50 (primary HIV-1 Envs; [11]) | IC50 (primary HIV-1 Envs; [12]) | IC50 (primary HIV-1 Envs; [13]) | IC50 (primary HIV-1 Envs; [14]) | IC50 (primary HIV-1 Envs; [15]) | IC50 (SIV239 pseudovirus) | IC50 (SIVPBJ pseudovirus) | Cytotoxicity on HEK293T cells (HEK293T cells) | Cytotoxicity on TZM-bl cells (TZM-bl cells) | Inhibitory activity against SARS-CoV-2 (SARS-CoV-2) | Inhibition of HIV-1 (HIV-1) | further results
CC[C@H](C)[C@H](NC(=O)[C@H](C)NC(=O)[C@H](CCC(=O)O)NC(=O)[C@H](CCC(=O)O)NC(=O)[C@H](CC(C)C)NC(=O)[C@H](CCCCN)NC(=O)[C@H](CCCCN)NC(=O)[C@H](CCSC)NC(=O)[C@H](CCC(=O)O)NC(=O)[C@H](Cc1ccc(O)cc1)NC(=O)[C@H](CCC(=O)O)NC(=O)[C@H](CC(C)C)NC(=O)[C@H](CC(=O)O)NC(=O)[C@H](CC(C)C)NC(=O)[C@H](Cc1ccccc1)NC(=O)[C@@H](NC(=O)[C@@H](NC(=O)[C@H](CC(N)=O)NC(=O)[C@@H](NC(=O)[C@H](CCC(N)=O)NC(=O)[C@H](CC(=O)O)NC(=O)[C@H](CC(C)C)NC(=O)[C@H](CO)NC(C)=O)[C@@H](C)CC)C(C)C)[C@@H](C)O)C(=O)N[C@@H](CCCCN)C(=O)N[C@@H](CCCCN)C(=O)N[C@@H](CC(C)C)C(=O)N[C@@H](CCC(=O)O)C(=O)N[C@@H](CCC(=O)O)C(=O)N[C@@H](CO)C(=O)N[C@@H](Cc1ccc(O)cc1)C(=O)N[C@H](C(=O)N[C@@H](CC(=O)O)C(=O)N[C@@H](CC(C)C)C(=O)N[C@@H](CCCCN)C(=O)N[C@@H](CCC(=O)O)C(=O)N[C@@H](CC(C)C)C(=O)N[C@@H](CCCCNC(=O)CCC(=O)O[C@H]1CC[C@@]2(C)C(=CC[C@H]3[C@@H]4CC[C@H]([C@H](C)CCCC(C)C)[C@@]4(C)CC[C@@H]32)C1)C(N)=O)[C@@H](C)CC [EK1V1] (Ac-SLDQINVTFLDLEYEMKKLEEAIKKLEESYIDLKELK(Succinyl(4-O-cholesteryl))-NH2; N-terminus and C-terminus assumed) | 50 ± 10 nM | 170 ± 10 nM | 70 ± 10 nM | 350 ± 100 nM | 40 ± 10 nM | 20 ± 4 nM | 490 ± 90 nM | 130 ± 30 nM | 170 ± 30 nM | 50 ± 10 nM | 680 ± 170 nM | 40 ± 10 nM | 50 ± 4 nM | 170 nM | 1430 nM | 310 nM | none of them at a concentration of 10 or 25 μM showed significant cytotoxic effects | none of them at a concentration of 10 or 25 μM showed significant cytotoxic effects |  |  | n-fold (HIV-1NL4-3 pseudovirus): 1; IC50 (HIV-1NL4-3 pseudovirus; 1NL4-3 pseudovirus, 48 h): 39.8 nM; IC50 (HIV-1NL4-3 pseudovirus; Table 3, […], mean ± SD, triplicate, repeated three times): 40 ± 2 nM; IC50 (H5N1 pseudovirus): > 25000 nM; IC50 (H7N9 pseudovirus): > 25000 nM; IC50 (RSV pseudovirus): > 25000 nM
CC[C@H](C)[C@H](NC(=O)[C@H](C)NC(=O)[C@H](CCC(=O)O)NC(=O)[C@H](CCC(=O)O)NC(=O)[C@H](CC(C)C)NC(=O)[C@H](CCCCN)NC(=O)[C@H](CCCCN)NC(=O)[C@H](CCSC)NC(=O)[C@H](CCC(=O)O)NC(=O)[C@H](Cc1ccc(O)cc1)NC(=O)[C@H](CCC(=O)O)NC(=O)[C@H](CC(C)C)NC(=O)[C@H](CC(=O)O)NC(=O)[C@H](CC(C)C)NC(=O)[C@H](Cc1ccccc1)NC(=O)[C@@H](NC(=O)[C@@H](NC(=O)[C@H](CC(N)=O)NC(=O)[C@@H](NC(=O)[C@H](CCC(N)=O)NC(=O)[C@H](CC(=O)O)NC(=O)[C@H](CC(C)C)NC(=O)[C@H](CO)NC(C)=O)[C@@H](C)CC)C(C)C)[C@@H](C)O)C(=O)N[C@@H](CCCCN)C(=O)N[C@@H](CCCCN)C(=O)N[C@@H](CC(C)C)C(=O)N[C@@H](CCC(=O)O)C(=O)N[C@@H](CCC(=O)O)C(=O)N[C@@H](CO)C(=O)N[C@@H](Cc1ccc(O)cc1)C(=O)N[C@H](C(=O)N[C@@H](CC(=O)O)C(=O)N[C@@H](CC(C)C)C(=O)N[C@@H](CCCCN)C(=O)N[C@@H](CCC(=O)O)C(=O)N[C@@H](CC(C)C)C(N)=O)[C@@H](C)CC [EK1] | > 5000 nM | > 5000 nM | > 5000 nM | > 5000 nM | > 5000 nM | > 5000 nM | > 5000 nM | > 5000 nM | > 5000 nM | > 5000 nM | > 5000 nM | > 5000 nM | > 5000 nM | > 5000 nM | > 12500 nM | > 12500 nM | none of them at a concentration of 10 or 25 μM showed significant cytotoxic effects | none of them at a concentration of 10 or 25 μM showed significant cytotoxic effects |  |  | IC50 (HIV-1NL4-3 Env): > 5000 nM; IC50 (primary HIV-1 Envs; HIV-1 Env JRFL, subtype B, triplicate, repeated three times, read-out: Cell fusion (IC50±SD)): > 5000 nM; Complex formation with gp41 HR1-derived peptides N42, N36, N38 by size-exclusion chromatography [1]: could form peptide complexes; IC50 (H5N1 pseudovirus): > 25000 nM; IC50 (H7N9 pseudovirus): > 25000 nM; IC50 (RSV pseudovirus): > 25000 nM; IC50 (HIV-2ROD): > 12500 nM; IC50 (HIV-2ST): > 12500 nM
Enfuvirtide |  |  |  |  |  |  |  |  |  |  |  |  |  |  | 390 nM | 480 nM |  |  | none was found to have inhibitory activity | potently inhibited HIV-1 | 
SLDQINVTFLDLEYEMKKLEEAIKKLEESYIDLKEL-GSGSG-PEG4-C(Chol) [EK1C4] |  |  |  |  |  |  |  |  |  |  |  |  |  |  |  |  | none of them at a concentration of 10 or 25 μM showed significant cytotoxic effects | none of them at a concentration of 10 or 25 μM showed significant cytotoxic effects |  |  | 
albuvirtide |  |  |  |  |  |  |  |  |  |  |  |  |  |  |  |  |  |  | none was found to have inhibitory activity | potently inhibited HIV-1 | 
sifuvirtide |  |  |  |  |  |  |  |  |  |  |  |  |  |  |  |  |  |  | none was found to have inhibitory activity | potently inhibited HIV-1 | 
